Results as given in patent US20150110725A1, “MIXTURE FOR THE INHIBITION OF MELANIN BIOSYNTHESIS” (GENERAL TOPICS S.R.L., priority 2012, published 2015).

System: murine melanoma named B16
Assay: Inhibition of melanin biosynthesis in secondary cultures of murine melanoma B16, 72 hours of exposure
Assay type: cell-based
Protocol: In order to evaluate the inhibition of melanin biosynthesis by the present mixture, an in vitro experimental model was used which consists of secondary cultures of a murine melanoma named B16. This strain is composed of cells with fibroblastoid morphology which produce melanin (Source: European Collection of Cell Cultures, ECACC).
For the tests, powders of the active ingredients were dissolved in ethanol and propylene glycol (1:1) at 10% (w/w) followed by dilution in culture medium DMEM high glucose+10% FBS supplemented with antibiotics (Penicillin 2000 IU/ml, Streptomycin 1000 IU/ml, Gentamicin 10 mg/ml) to final concentrations of: • A) 4-(1-phenylethyl)-1,3-benzenediol: 10 μg/ml; • B) Acetylglucosamine: 25 μg/ml, 50 μg/ml, 75 μg/ml; • C) Ethyl linoleate: 50 μg/ml; • D) 4-(1-phenylethyl)-1,3-benzenediol at concentration of 10 μg/ml and acetylglucosamine at concentration of 75 μg/ml; • E) 4-(1-phenylethyl)-1,3-benzenediol at a concentration of 10 μg/ml, acetylglucosamine at a concentration of 75 μg/ml, and ethyl linoleate at a concentration of 75 μg/ml. • F) hydroquinone at a concentration of 5 μg/ml (non-cytotoxic concentration)
At passage 30 the afore said cells were seeded on 6-well plates for 24 hours at a concentration of 80,000 cells per well. Then, fresh culture medium containing the afore said samples was added. Untreated cells were used as a negative control, whereas cells treated with hydroquinone at a non-cytotoxic concentration of 5 μg/ml were used as a positive control, as indicated above at point F).
Each sample was tested in duplicate.
After 72 hours of exposure, melanin and intracellular proteins were dosed.
Cells were washed once with phosphate buffered saline (PBS) and then lysed with NaOH 0.1N. The lysate was heated at 60° C. for 1 hour to allow melanin to be solubilized.
In order to evaluate the amount of melanin in the cell lysate, a spectrophotometric reading was taken at a wavelength of 405 nm with the use of a colorimeter (Tecan Sunrise Remote Model) equipped with a plate reader.
A standard curve for melanin titrated from 15 to 500 μg/ml was prepared.
The protein dosage was carried out according to the Bradford's method (Bradford M., […]). […]
The reading was taken at 595 nm with a colorimeter (Tecan, Sunrise) equipped with a plate reader.
In order to quantify protein and melanin contents, a standard calibration curve for albumin and melanin was constructed, and their concentrations in the samples were calculated by using the curve fit formula and the corresponding absorbances.
Then, averages of individual data were calculated and, for each sample, the percentage reduction of melanin was calculated compared to the negative control: […]

SMILES: CC(c1ccccc1)c1ccc(O)cc1O (stereo not shown) [4-(1-phenylethyl)-1,3-benzenediol]
- percentage reduction in melanin biosynthesis (10 μg/ml, B16 cells, 72 h): about 50%

SMILES: CC(=O)N[C@@H]1[C@@H](O)[C@H](O)[C@@H](CO)O[C@@H]1O [acetylglucosamine]
- average reduction in melanin biosynthesis (acetylglucosamine alone, average over 25 μg/ml, 50 μg/ml and 75 μg/ml, B16 cells, 72 h): 8%

SMILES: CCCCC/C=C\C/C=C\CCCCCCCC(=O)OCC [ethyl linoleate]
- ability to inhibit melanin synthesis when used individually (ethyl linoleate alone (50 μg/ml), compared with the mixture containing it): significantly lower than that of the present mixture

SMILES: Oc1ccc(O)cc1 [hydroquinone]
- inhibition at 5 µg/mL (Mus musculus, hydroquinone at non-cytotoxic concentration (5 μg/ml), positive control, B16 cells, 72 h, read-out: ability to inhibit melanin biosynthesis): ~40%
